Results published in patent publication US20240207200A1, “USE OF PROPANDIOL MONONITRATE AND LIMONENE FOR REDUCING THE FORMATION OF METHANE EMANATING AND FOR IMPROVING THE DIGESTIBILITY” (DSM IP Assets B.V., priority 2021, published 2024).

Test system: rumen liquor
Experiment: In vitro test for methane production, modified Hohenheim Forage value Test (HFT)
Assay type: cell-based
Details: TMR feed, 8 hours at 39° C., average of four to eight experiments
Procedure: In vitro test for methane production: A modified version of the “Hohenheim Forage value Test (HFT)” was used for testing the effect of specific compounds on the rumen functions mimicked by this in-vitro system.
Principle: Feed is gadded into a syringe with a composition of rumen liquor and an appropriate mixture of buffers. The solution is incubated at 39° C. After 8 hours the quantity (and composition) of gas phase produced is measured and put into a formula for conversion.
Sample weighing: The feed stuff (i.e. TMR (44% concentrate, 6% hay, 37% maize silage and 13% grass silage) is sieved to 1 mm and weighed exactly into 64 syringes. 4 of these syringes are the substrate controls, which display the gas production without the effect of the tested compounds. 4 other syringes are positive control (3-NOP, […]). When needed, 4 syringes contain a carrier control (if the test compounds need a carrier). The remaining syringes contain the test substances, by groups of 4 syringes, in the amounts as indicated in table 1.
• The components are mixed in a Woulff bottle in following order: • 711 ml water • 0.18 ml trace element solution • 355.5 ml buffer solution • 355.5 ml mass element solution • The completed solution is warmed up to 39° C. followed by the addition of 1.83 ml sodium salt solution and the addition of reduction solution at 36° C. • The rumen liquor is added, when the indicator turns colourless.
Extraction of the rumen liquor: 750 ml of rumen liquor are added to approximately 1,400 ml of medium solution under continued agitation and CO2-gassing.
Filling the syringes, incubation and determining gas volumes and VFA values: The diluted rumen fluid (24 ml) is added to the glass syringe. The syringes are then incubated for 8 hours at 39° C. under gentle agitation. After 8 hours, the volume of gas produced is measured, and the percentage of methane in the gas phase is determined by gas chromatography.
The food fermented was artificial TMR (44% concentrate, 6% hay, 37% maize silage and 13% grass silage). […]

C=C(C)C1CC=C(C)CC1 [DL, D-Limonene]
Total methane change [% vs. control], found (DL 100 μM): −1 % vs. control

O=[N+]([O-])OCCCO [PDMN, Propanediol mononitrate]
Total methane change [% vs. control], found (PDMN 5 μM): −27 % vs. control
Total methane change [% vs. control], found (PDMN 10 μM): −98 % vs. control
